Measured values as given in patent publication US12564193B2, “Isoxazoline-substituted benzamide derivative, and preparation method therefor and use thereof” (SHANDONG UNITED PESTICIDE INDUSTRY CO., LTD., priority 2020, dated 2026).

How the values were obtained:
Type in all cases: in vivo
[1] = tested on: Frankliniella occidentalis; assay: Insecticidal activity, spray on pre-infested radish plants: Frankliniella occidentalis; details: for Fatality rate on Frankliniella occidentalis (%): Table 3
Experimental: (§1) For determination of insecticidal activity, the test method was as follows: a test solution with a desired concentration was prepared by dissolving a test compound sample in a suitable solvent (the kind of solvent was such as acetone, methanol, DMSO, etc., and was selected according to its dissolving ability for the sample). The test cell was composed of a small open container with 12-15 day old radish plants inside. The plants were pre-infested by placing 30-40 pests located on one leaf cut from the cultivated plant on one leaf of the test plant (leaf cutting method). As the leaves dehydrated, the pests moved on the test plants. After the pre-infesting, the soil of the test cells was covered with a layer of sand.
The test method was as follows: the test was repeated for three times, and after spraying the formulated test compound, each test unit was allowed to dry for 1 hour, and then a black mesh cover was placed at the top. The test units were kept in a growth chamber at 25° C. and 70% relative humidity for 6 days. The mortality (fatality rate) of the insects was then visually assessed for each test unit, and the fatality rate was calculated as follows:
[formula] (1) Test Results for the Control of Frankliniella occidentalis by Exemplary Example Compounds

[2] = tested on: Mythimna separata; assay: Insecticidal activity, spray on pre-infested radish plants: Mythimna separata; details: for Fatality rate on Mythimna separata (%): Table 3
Experimental: as §1
(§2) The test method was as follows: the test was repeated for three times, and after spraying the formulated test compound, each test unit was allowed to dry for 1 hour, and then a black mesh cover was placed at the top. The test units were kept in a growth chamber at 25° C. and 70% relative humidity for 6 days. The mortality (fatality rate) of the insects was then visually assessed for each test unit, and the fatality rate was calculated as follows: […]

[3] = tested on: Chilo suppressalis; assay: Insecticidal activity, spray on pre-infested radish plants: Chilo suppressalis; details: for Fatality rate on Chilo suppressalis (%): Table 3
Experimental: as §1, §2

[4] = tested on: Plutella xylostella; assay: Insecticidal activity, spray on pre-infested radish plants: Plutella xylostella; details: for Fatality rate on Plutella xylostella (%): Table 3
Experimental: as §1, §2

[5] = tested on: Spodoptera litura; assay: Insecticidal activity, spray on pre-infested radish plants: Spodoptera litura; details: 144 h, read-out: fatality rate on Spodoptera litura
Experimental: as §1, §2

[6] = tested on: Cnaphalocrocis medinalis; assay: Insecticidal activity, spray on pre-infested radish plants: Cnaphalocrocis medinalis; details: 144 h, read-out: fatality rate on Cnaphalocrocis medinalis
Experimental: as §1, §2

[7] = tested on: Pieris rapae; assay: Insecticidal activity, spray on pre-infested radish plants: Pieris rapae; details: 144 h, read-out: fatality rate on Pieris rapae
Experimental: as §1, §2

[8] = tested on: Tetranychus cinnabarinus; assay: Acaricidal activity, slide immersion of female adult mites: Tetranychus cinnabarinus; details: 24 h, read-out: fatality rate on Tetranychus cinnabarinus
Experimental: The test method was as follows: a test solution with a desired concentration was prepared by dissolving a test compound sample in a suitable solvent (the kind of solvent was such as acetone, methanol, DMSO, etc., and was selected according to its dissolving ability for the sample). A double-sided adhesive tape was cut into 2-3 cm long pieces, the pieces were attached to one end of a microscope slide, paper pieces on the adhesive tape were removed using tweezers, female adult mites which were consistent in size, bright in body color and lively in action were selected using a zero-size brush pen, the backs of the female adult mites were adhered to the double-sided adhesive tape (note: the adhesion should not cover mite feet, mite whiskers and mouthparts), with 4 rows of mites adhered to each piece and 10 heads of the mites adhered to each row.
One end of the glass slide with the mites was immersed into a drug liquid, with slightly shaking for 5 seconds, and then the slide was taken out. The excess drug liquid around the mite body and is surroundings is quickly sucked off using absorbent paper. The slide was placed in the biochemical incubator described above, and the results were checked by using binoculars after 24 hours. The mites were slightly touched by using a brush pen, the mites with immobility in feet were considered to be dead, and the fatality rate was calculated. The fatality rate was calculated as follows: […]

[9] = Frankliniella occidentalis, 144 h, read-out: fatality rate on Frankliniella occidentalis
[10] = Mythimna separata, 144 h, read-out: fatality rate on Mythimna separata
[11] = Chilo suppressalis, 144 h, read-out: fatality rate on Chilo suppressalis
[12] = Plutella xylostella, 144 h, read-out: fatality rate on Plutella xylostella

Cc1cc(C2=NOC(c3cc(Cl)cc(Cl)c3)(C(F)(F)F)C2)ccc1C(=O)NCc1ccc(Cl)nc1 (stereo not drawn) [CK1, reference compound]
10%: Fatality rate on Mythimna separata (%) ([2]; 0.1 ppm)
50%: Fatality rate on Chilo suppressalis (%) ([3]; 1 ppm)
100%: Fatality rate on Mythimna separata (%) ([2]; 10 ppm) | Fatality rate on Chilo suppressalis (%) ([3]; 10 ppm) | Fatality rate on Plutella xylostella (%) ([4]; 10 ppm)
80%: Fatality rate on Frankliniella occidentalis (%) ([1]; 25 ppm) | Fatality rate on Mythimna separata (%) ([2]; 1 ppm) | Fatality rate on Plutella xylostella (%) ([4]; 1 ppm)
40%: Fatality rate on Frankliniella occidentalis (%) ([1]; 10 ppm)
0%: Fatality rate on Frankliniella occidentalis (%) ([1]; 1 ppm) | Fatality rate on Chilo suppressalis (%) ([3]; 0.1 ppm)
15%: Fatality rate on Plutella xylostella (%) ([4]; 0.1 ppm)

Cc1cc(C2=NOC(c3cc(Cl)c(F)c(Cl)c3)(C(F)(F)F)C2)ccc1C(=O)NCc1ccc(Cl)nc1 (stereo not drawn) [Compound 1, N-((6-chloropyridin-3-yl)methyl)-4-(5-(3,5-dichloro-4-fluorophenyl)-5-(trifluoromethyl)-4,5-dihydroisoxazol-3-yl)-2-methylbenzamide]
> 80%: pest or weed control at 0.1 ppm [5] | pest or weed control at 1 ppm [5] | pest or weed control at 10 ppm [5] | pest or weed control at 1 ppm [1, 9] | pest or weed control at 10 ppm [1, 9] | pest or weed control at 25 ppm [1, 9] | pest or weed control at 0.1 ppm [6] | pest or weed control at 1 ppm [6] | pest or weed control at 10 ppm [6] | pest or weed control at 0.1 ppm [2, 10] | pest or weed control at 1 ppm [2, 10] | pest or weed control at 10 ppm [2, 10] | pest or weed control at 0.1 ppm [3, 11] | pest or weed control at 1 ppm [3, 11] | pest or weed control at 10 ppm [3, 11] | pest or weed control at 0.1 ppm [7] | pest or weed control at 1 ppm [7] | pest or weed control at 10 ppm [7] | pest or weed control at 1 ppm [8] | pest or weed control at 10 ppm [8] | pest or weed control at 25 ppm [8] | pest or weed control at 0.1 ppm [4, 12] | pest or weed control at 1 ppm [4, 12] | pest or weed control at 10 ppm [4, 12]
95%: Fatality rate on Frankliniella occidentalis (%) ([1]; 1 ppm) | Fatality rate on Mythimna separata (%) ([2]; 0.1 ppm)
100%: Fatality rate on Frankliniella occidentalis (%) ([1]; 10 ppm) | Fatality rate on Frankliniella occidentalis (%) ([1]; 25 ppm) | Fatality rate on Mythimna separata (%) ([2]; 1 ppm) | Fatality rate on Mythimna separata (%) ([2]; 10 ppm) | Fatality rate on Chilo suppressalis (%) ([3]; 1 ppm) | Fatality rate on Chilo suppressalis (%) ([3]; 10 ppm) | Fatality rate on Plutella xylostella (%) ([4]; 0.1 ppm) | Fatality rate on Plutella xylostella (%) ([4]; 1 ppm) | Fatality rate on Plutella xylostella (%) ([4]; 10 ppm)
90%: Fatality rate on Chilo suppressalis (%) ([3]; 0.1 ppm)
